Patent US20200129523A1, “SHIP INHIBITION TO INDUCE EXPRESSION OF GRANULOCYTE COLONY STIMULATING FACTOR IN A SUBJECT” (THE RESEARCH FOUNDATION FOR THE STATE UNIVERSITY OF NEW YORK, priority 2014, published 2020)
Entries after “also recorded” stand apart in the source; their conditions may differ.

Tests used:
PDGFRα+CD51+ MSC = assay: In vivo MSC immunophenotyping by flow cytometry; design: species or system mice; details: K118 10 mg/kg i.p. 5 days, vs H2O
Method: PDGFRα^+CD51^+ MSC were detected using methods and reagents as described by Iyer et al.^8 Femurs, tibias, humeri, ulnas, radii, and pelvis were dissected; the bone fragments were cleaned, cut into tiny pieces, and then crushed using a mortar and pestle. The bone chips were then washed several times in HBSS supplemented with 2% heat-inactivated FBS (HBSS/2% HI-FBS) and HBSS only, and then spun at 350×g for 5 mins. The pellet was re-suspended in 3 mg/mL type I collagenase (Worthington) and 15 μg/mL DNAase (Sigma, St. Louis, Mo.) dissolved in HBSS and incubated at 37° C. for 30 min at 110 rpm, this step was repeated twice. Following incubation, mononuclear cells were obtained using a Ficoll gradient ([…] and Histopaque-1077; Sigma, St. Louis, Mo.), and were then used for further analysis. Cells were stained with antibodies as described in Iyer et al.^8

G-CSF = G-CSF ELISA of serum of treated mice; type: in vivo; details: K118 10 mg/kg i.p. 5 days, vs H2O; hydrochloride, 10 mg/kg
Method: Peripheral blood was collected in serum separation microvette tubes (SARSTEDT). Tubes were kept at room temperature for 2 hrs. and then spun at 2000×g for 20 min as per manufacturers recommendation. Serum levels of G-CSF in treated mice were determined using a Mouse G-CSF Quantikine Elisa kit (R&D systems).

MSC (CFU-F) = assay: Colony forming unit (CFU-F) assay on BM cells of treated mice; type: in vivo; details: K118 10 mg/kg i.p. 5 days, vs H2O
Method: Primary whole BM cells (adherent+non-adherent) were plated in 60-mm plates (triplicates, 3×10^6 cells per plate) in CFU-F growth media: DMEM, Mesencult Serum (Stem Cell Technologies) with 1% penicillin-streptomycin-glutamine. Cells were cultured for approximately 7 days, after which cells were fixed with 70% ethanol and stained for alkaline phosphatase activity using the Leukocyte Alkaline Phosphatase Kit (Sigma) and counter-stained with neutral red (Sigma). Colonies (ALP^+ cells/colonies) were counted using the Software program “Image J” (National Institutes of Health Research Services Branch).

immunoregulatory cells = assay: Preliminary oral K118 study: immunoregulatory cells; type: in vivo, wt C57BL/6 mice; details: K118 orally 10 mg/kg in water
Method: K118 was administered in water, and in wt C57BL/6 mice.

SHIP1 = biological target: T1, SHIP1 (Homo sapiens, UniProt Q92835); assay: Fluorescence Polarization (FP) assay for SHIP1 enzymatic activity; type: biochemical; details: in vitro, hydrochloride
T1 sequence (Q92835 1-1189): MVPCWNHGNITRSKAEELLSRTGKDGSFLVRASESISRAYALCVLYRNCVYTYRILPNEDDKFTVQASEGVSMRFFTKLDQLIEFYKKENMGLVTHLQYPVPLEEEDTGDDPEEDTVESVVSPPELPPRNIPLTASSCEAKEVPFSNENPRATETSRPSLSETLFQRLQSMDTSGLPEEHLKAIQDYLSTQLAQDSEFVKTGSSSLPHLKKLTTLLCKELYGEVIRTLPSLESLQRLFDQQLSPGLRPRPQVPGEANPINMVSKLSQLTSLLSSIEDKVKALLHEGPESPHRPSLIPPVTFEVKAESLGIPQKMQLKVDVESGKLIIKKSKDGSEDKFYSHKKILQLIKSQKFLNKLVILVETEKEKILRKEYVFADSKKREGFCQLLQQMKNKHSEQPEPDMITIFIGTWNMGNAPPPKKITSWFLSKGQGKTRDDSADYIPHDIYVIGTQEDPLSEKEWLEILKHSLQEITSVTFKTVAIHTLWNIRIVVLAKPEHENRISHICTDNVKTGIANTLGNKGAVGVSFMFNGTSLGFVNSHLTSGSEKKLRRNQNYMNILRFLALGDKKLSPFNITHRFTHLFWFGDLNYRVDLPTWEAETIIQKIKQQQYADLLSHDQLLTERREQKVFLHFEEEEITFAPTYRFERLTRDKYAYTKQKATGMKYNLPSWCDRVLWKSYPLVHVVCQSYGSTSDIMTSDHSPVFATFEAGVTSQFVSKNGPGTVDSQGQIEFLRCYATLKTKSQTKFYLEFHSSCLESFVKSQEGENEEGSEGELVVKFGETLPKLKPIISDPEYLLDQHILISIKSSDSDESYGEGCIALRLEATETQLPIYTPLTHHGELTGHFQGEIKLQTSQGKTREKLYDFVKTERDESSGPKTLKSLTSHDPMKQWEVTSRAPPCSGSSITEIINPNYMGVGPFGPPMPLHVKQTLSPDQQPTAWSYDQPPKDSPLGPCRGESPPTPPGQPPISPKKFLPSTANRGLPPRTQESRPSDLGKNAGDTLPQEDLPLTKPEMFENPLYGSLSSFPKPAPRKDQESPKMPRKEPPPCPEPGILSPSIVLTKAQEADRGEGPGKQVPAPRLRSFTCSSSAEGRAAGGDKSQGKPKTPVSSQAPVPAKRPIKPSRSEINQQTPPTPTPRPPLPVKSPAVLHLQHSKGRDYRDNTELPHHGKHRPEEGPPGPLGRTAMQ
From the text: FIGS. 6A-6F: Characterizations of the soluble SHIPi compound K118. FIG. 6A: Fluorescence Polarization (FP) assay comparing SHIPi enzymatic inhibitory activity between 3AC and K118 (IC50˜13.87). In the remaining panels we show for K118 and H2O treated mice (as indicated). FIG. 6B: Representative box and whisker graph depicting serum levels of G-CSF (n=4/group); FIG. 6C: Flow cytometric analysis comparing LT-HSC (LSKFlk2−CD34−), ST-HSC (LSKFlk2−CD34+), and MPP (LSKFlk2^+CD34^+); FIG. 6D: Absolute increase in BM LT-HSC, ST-HSC, and MPP (n=5/group). Primary CRU assay illustrating global and lineage reconstitution one month post transplant; Absolute increase in repopulating units (RU). FIG. 6E: Representative contour plots for PDGFRα^+CD51^+ MSC (after excluding CD45^+, CD31^+, Lin^+ cells); FIG. 6F: Box and whiskers graph illustrating the percentage of PDGFRa^+CD51^+ MSC (n=5/group); Representative images of CFU-F assays used to measure CFU-F frequencies in BM cells of treated mice and Box and whiskers graphs indicating CFU-F frequency in treated mice. All of the above comparisons are representative of two independent experiments.
(FIG. 6A) We sought to determine if this water-soluble K118 SHIPi compound has the capacity to increase G-CSF production within the same five-day injection period as 3AC. […]

C[C@@]12CCC[C@H]1[C@@H]1CC[C@H]3C[C@@H](N)CC[C@]3(C)[C@H]1CC2.Cl [K118, 3β-amino-5α-androstane hydrochloride]
MSC numbers in BM (PDGFRα+CD51+ MSC): significant expansion
G-CSF production (serum) (G-CSF): significant increase; also recorded: super-induces
frequency of CFU-F in BM (MSC (CFU-F)): significantly increased frequency
neutrophil numbers (immunoregulatory cells): trend for increased
frequency of natural T regulatory cells (nTreg, CD4+CD25+FoxP3+) (immunoregulatory cells; mesenteric lymph node (mLN)): Significant increases
frequency of myeloid derived suppressor cells (MDSC, Gr1+Mac1+) (immunoregulatory cells; spleen): significant increase
frequency of natural T regulatory cells (nTreg, CD4+CD25+FoxP3+) (immunoregulatory cells; spleen): Significant increases
SHIP1 inhibitory activity compared with 3AC (SHIP1): comparable SHIP1 inhibitory activity; also recorded: equal potency
